Data taken from patent US6423494B1, “DR6 and uses thereof” (Millennium Pharmaceuticals, Inc., priority 1999, dated 2002).

system: colon cancer cell line SW-620; experiment: Drug sensitivity of colon cancer cell line SW-620 (NCI60 panel); assay type: cell-based, human; settings: SW-620 colon cancer cell line, in which DR6 does not appear to be expressed (Northern analysis)
Protocol: In order to identify genes involved in drug resistance, the expression various genes in drug resistant cancer cells was measured. The drug resistant cancer cell lines used were all members of the NCI60 panel of drug resistant cell lines. The cell lines in this panel are resistant to one or more chemotherapeutic compounds.

SMILES	sensitivity of the cell line to the drug
O=C(O)CCCc1ccc(N(CCCl)CCCl)cc1 [chlorambucil]	relatively sensitive
N.N.[Cl][Pt][Cl] [cisplatin]	relatively sensitive
COc1cccc2c1C(=O)c1c(O)c3c(c(O)c1C2=O)C[C@@](O)(C(=O)CO)C[C@@H]3O[C@H]1C[C@H](N)[C@H](O)[C@H](C)O1 [doxorubicin]	relatively sensitive
COc1cc([C@@H]2c3cc4c(cc3[C@@H](O[C@@H]3O[C@@H]5CO[C@@H](C)O[C@H]5[C@H](O)[C@H]3O)[C@H]3COC(=O)[C@H]23)OCO4)cc(OC)c1O [etoposide]	relatively sensitive
CC[C@@]1(O)C(=O)OCc2c1cc1n(c2=O)Cc2cc3c(CN(C)C)c(O)ccc3nc2-1 [topotecan]	relatively sensitive
